Laboratory results reported in patent US10584121B2 (Merck Sharp & Dohme Corp., priority 2015, dated 2020).

Test: Rat PK: plasma clearance after PO and IV dosing
Format: in vivo
Details: fasted male Wistar Han rats; IV 0.5 mg/kg or 0.05 mg/kg; 20/60/20 DMSO/PEG400/H2O
Procedure: Experimental Procedure for Collecting Rat PK:
Pharmacokinetic parameters were determined following PO and IV dosing at 1 mg/kg and 0.5 mg/kg or 0.05 mg/kg respectively in fasted male Wistar Han rats. Compounds were formulated for both PO and IV dosing in 20/60/20 DMSO/PEG400/H2O. Plasma samples obtained from dosed animals were acidified by adding 30 μL of 2% formic acid to 100 μL of plasma to stabilize potential acyl-glucuronide metabolites. Sample clean-up was carried out by means of a single step protein precipitation technique by adding 200 μL of acetonitrile to 50 μL aliquots of individual subject samples. Samples were mixed by vortex for homogeneity and then subjected to centrifugation at 3500 rpm for 10 min. The supernatant (200 μL) was collected and an aliquot was injected into the LC-MS/MS for analysis. Pharmacokinetic parameters were calculated using established non-compartmental methods. The area under the plasma concentration versus time curve (AUC) was determined using the Watson software (version 7.3) or Phoenix Professional (version 6.2.1), with linear trapezoidal interpolation in the ascending slope and logarithmic trapezoidal interpolation in the descending slope. The portion of the AUC from the last measurable concentration to infinity was estimated from the equation, Ct/kel, where Ct represents the last measurable concentration and kel is the elimination rate constant. The latter was determined from the concentration versus time curve by linear regression at the terminal phase of the semi-logarithmic plot.

Rat plasma clearance (Clp) [mL/min/kg] | SMILES
76 | O=C(O)c1ccc(-c2nn(C(=O)c3c(Cl)cccc3C(F)(F)F)c3cccnc23)c(F)c1 [historical compound, reference compound]

Same assay, conditions: rat, plasma; fasted male Wistar Han rats; IV 0.5 mg/kg or 0.05 mg/kg; 20/60/20 DMSO/PEG400/H2O; read-out: Rat plasma clearance (Clp)

SMILES | clearance [mL/min/kg]
O=C(O)c1ccc(-c2nn(C(=O)c3c(Cl)cccc3C3(CF)CC3)c3cccnc23)c(F)c1 [Example 1E, 4-(1-(2-chloro-6-(1-(fluoromethyl)cyclopropyl)benzoyl)-1H-pyrazolo[4,3-b]pyridin-3-yl)-3-fluorobenzoic acid] | 16
Cc1cccc(C2(C(F)(F)F)CC2)c1C(=O)n1nc(-c2ccc(C(=O)O)cc2F)c2ncccc21 [Example 1C, 3-fluoro-4-(1-(2-methyl-6-(1-(trifluoromethyl)cyclopropyl)benzoyl)-1H-pyrazolo[4,3-b]pyridin-3-yl)benzoic acid] | 21
O=C(O)c1ccc(-c2cn(C(=O)c3c(Cl)cccc3C3(C(F)(F)F)CC3)c3cccnc23)c(F)c1 [Example 1B, 4-(1-(2-chloro-6-(1-(trifluoromethyl)cyclopropyl)benzoyl)-1H-pyrrolo[3,2-b]pyridin-3-yl)-3-fluorobenzoic acid] | 5
O=C(O)c1ccc(-c2nn(C(=O)c3c(C4(C(F)(F)F)CC4)ccc(F)c3Cl)c3cccnc23)c(F)c1 [Example 1F, 4-(1-(2-chloro-3-fluoro-6-(1-(trifluoromethyl)cyclopropyl)benzoyl)-1H-pyrazolo[4,3-b]pyridin-3-yl)-3-fluorobenzoic acid] | 8
O=C(O)c1ccc(-c2nn(C(=O)c3c(Cl)cccc3C3(C(F)F)CC3)c3cccnc23)c(F)c1 [Example 1D, 4-(1-(2-chloro-6-(1-(difluoromethyl)cyclopropyl)benzoyl)-1H-pyrazolo[4,3-b]pyridin-3-yl)-3-fluorobenzoic acid] | 10
O=C(O)c1ccc(-c2nn(C(=O)c3c(Cl)cccc3C3(C(F)(F)F)CC3)c3cccnc23)c(F)c1 [Example 1A, 4-(1-(2-chloro-6-(1-(trifluoromethyl)cyclopropyl)benzoyl)-1H-pyrazolo[4,3-b]pyridin-3-yl)-3-fluorobenzoic acid] | 6

Results, then the molecule that gave them:

clearance [mL/min/kg] | SMILES
18 | Cc1c(F)ccc(C2(C(F)(F)F)CC2)c1C(=O)n1nc(-c2ccc(C(=O)O)cc2F)c2ncccc21 [Example 1I, 3-fluoro-4-(1-(3-fluoro-2-methyl-6-(1-(trifluoromethyl)cyclopropyl)benzoyl)-1H-pyrazolo[4,3-b]pyridin-3-yl)benzoic acid]
5 | O=C(O)c1ccc(-c2cn(C(=O)c3c(Cl)cccc3C3(C(F)F)CC3)c3cccnc23)c(F)c1 [Example 1J]
16 | O=C(O)c1ccc(-c2nn(C(=O)c3c(C4(C(F)F)CC4)ccc(F)c3Cl)c3cccnc23)c(F)c1 [Example 1H, 4-(1-(2-chloro-6-(1-(difluoromethyl)cyclopropyl)-3-fluorobenzoyl)-1H-pyrazolo[4,3-b]pyridin-3-yl)-3-fluorobenzoic acid]
5 | O=C(O)c1ccc(-c2nn(C(=O)c3c(C(F)F)cccc3C3(C(F)(F)F)CC3)c3cccnc23)c(F)c1 [Example 1G, 4-(1-(2-(difluoromethyl)-6-(1-(trifluoromethyl)cyclopropyl)benzoyl)-1H-pyrazolo[4,3-b]pyridin-3-yl)-3-fluorobenzoic acid]
